{"source": "patent US20120029054A1", "about": "“RNA Interference Mediated Inhibition of GATA Binding Protein 3 (GATA3) Gene Expression Using Short Intefering Nucleic Acid (siNA)” (Merck Sharp & Dohme Corp., priority 2009, published 2012)", "key": {"GATA3 mRNA [1]": {"tested_on": "GATA3 mRNA", "assay": "GATA3 mRNA knock-down (Taqman qRT-PCR) after RNAiMax transfection of mouse RAG cells", "assay_type": "cell-based", "conditions": "10 nM siNA, 24 hrs, average of 2 experiments", "outline": "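Murine RAG cells, 5000/well, transfected 24 h after plating with siNA (10 nM final) complexed with RNAiMax, harvested after 24 h. GATA3 mRNA quantified by TaqMan qRT-PCR with GAPDH reference; % knock-down by comparative Ct (2^−ΔΔCt) versus non-targeting control siNA.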"}, "GATA3 mRNA [2]": {"tested_on": "GATA3 mRNA", "assay": "GATA3 mRNA knock-down (Taqman qRT-PCR) after RNAiMax transfection of human MCF7 cells; screen and IC50 dose response", "assay_type": "cell-based", "conditions": "for % KD Human: 10 nM siNA, 24 hrs; for % KD Human / IC50: MCF7 cells; for IC50 / % KD GATA3 mRNA at 10 nM / % KD GATA3 10 nM: mean ± S.D.; for % KD GATA3 mRNA at 10 nM: Table 4, MCF7 cells, no assay mark printed (same values marked * in Table 3); for % KD GATA3 10 nM: Table 5, MCF7 cells, three experiments, no assay mark printed", "outline": "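MCF7 cells (5000/well, 24 h) transfected with siNA–RNAiMax complexes at 10 nM final siNA for 24 h without media change. GATA3 mRNA measured by TaqMan qRT-PCR, alongside β-actin and GAPDH probes. % knock-down by comparative Ct (2^−ΔΔCt) relative to non-targeting control siNA.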"}, "GATA3 protein": {"tested_on": "GATA3 protein", "assay": "GATA3 Western Blot in transfected MCF7 cells (6-well plate)", "assay_type": "cell-based, human", "conditions": "30 nM, 48 hours, average band ratio ± S.D.", "method": "MCF7 cells were plated in 6-well plates at final counts of 70,000 cells/well in 2 ml of complete growth media. Transfection was performed using 2.5 uL of RNAiMax per well. Final concentration of siNAs was 30 nM (screen) and 30, 0.3, and 0.003 nM (dose response study). Protein lysates were harvested 24, 48, and 72 hours post-transfection (screen) and 72 hours post-transfection (dose response study). Protein lysates were prepared using Cell Disruption Buffer from the PARIS kit (Ambion, cat #1921) according to manufacturer's instructions. Protein concentration was measured using a Bradford Quick Start Kit (Bio-Rad, cat#500-0205).\nThe protein source for the Western Blot experiments were from transfection of MCF7 cells in a 6 well plate, as described above.\nProtein samples were diluted 1:1 in 2× Laemmli buffer with 5% β-mercapto-ethanol and incubated at 95° C. for 5 minutes. 20-40 ug of protein was loaded in each lane of 10% Tris-HCl gel. One lane was designated for MagicMark Protein Standard (Invitrogen # LC5602). The gel was run at 100V for approximately 2 hours. Protein was transferred to a PVDF membrane at 100V for 60 minutes. Once the transfer was finished, the membrane was blocked in 1% Casein in PBS (BioRad Cat#161-0783) for 1 hour on a plate rocker at room temperature followed by the overnight incubation at 4° C. with mouse monoclonal anti-GATA3 primary antibody (Santa Cruz Biotechnology, cat# HG3-31) diluted 1:500 in 1% Casein in PBS. On the next day, the blot was washed 4×5 minutes in PBST (0.1% Tween-20 in PBS) solution and incubated for 30 minutes at room temperature with goat anti-mouse secondary antibody (Pierce Biotechnology, cat#3 31430) diluted 1:20,000 in 1% Casein. […]\nThe protein bands were quantified by computing their density which is defined by the ratio between the total intensity of all pixels and the area of the rectangle drawn around each band (intensity/mm^2). The density was calculated by the BioRad software.\nThe level of protein was quantified using the Bio-Rad VersaDoc Imager according to the protocols of that piece of equipment. […]"}, "human GAPDH mRNA": {"tested_on": "human GAPDH mRNA", "assay": "GAPDH specificity screen in human MCF7 cells (β-Actin normalised qRT-PCR)", "assay_type": "cell-based", "conditions": "normalised to β-Actin, three experiments, mean ± S.D.", "method": "A series of probes and primers were used to detect the various mRNA transcripts of the genes of β-Actin (human cell line only), and of GATA3 and GAPDH in mouse and human cell lines. All Taqman probes and primers for the experiments here-in described were supplied as pre-validated sets by Applied Biosystems, Inc. (see Table 2).\nThe assays were performed on an ABI 7900 instrument, according to the manufacturer's instructions. A TaqMan Gene Expression Master Mix (provided in the Cells-to-CT™, Applied Biosystems, Cat #4399002) was used. The PCR reactions were carried out at 50° C. for 2 min, 95° C. for 20 min followed by 40 cycles at 95° C. for 15 secs and 60° C. for 1 min.\nThe expression level of the gene of interest and % knock-down was calculated using Comparative Ct method: […]\nThese same three siNAs were tested for specificity in the human MCF7 cell line at 10 nM concentration to determine the effect of the GATA3 siNAs on the mRNA transcript of human GAPDH. In this assay, the samples from the primary screen, discussed above, O-Actin, a ubiquitously expressed ‘house-keeping’ gene, served as an endogenous control for normalization of the data."}}, "data": [{"substance": "30261-DC: GATA3 siNA duplex, site 1637: sense B cAuccAGAccAGAAAccGA TTB (SEQ 75), antisense UCGGuuucuGGucuGGAuGUU (SEQ 76) (sense CAUCCAGACCAGAAACCGATT; antisense UCGGUUUCUGGUCUGGAUGUU; chemistry not fully specified)", "values": [{"measurement": "% KD Mouse", "setting": "GATA3 mRNA [1]", "value": "72 ± 2", "unit": "%"}, {"measurement": "% KD Human", "setting": "GATA3 mRNA [2]; * Hs00231122_m1 Taqman Assay", "value": "77 ± 4* %"}, {"measurement": "% KD Human", "setting": "GATA3 mRNA [2]; ** Hs00922328_m1 Taqman Assay", "value": "77 ± 4** %"}, {"measurement": "IC50", "setting": "GATA3 mRNA [2]", "value": "0.051 ± 0.03", "unit": "nM"}, {"measurement": "% KD GATA3 mRNA at 10 nM", "setting": "GATA3 mRNA [2]", "value": "77 ± 4", "unit": "%"}, {"measurement": "% KD GATA3 10 nM", "setting": "GATA3 mRNA [2]", "value": "77 ± 4", "unit": "%"}, {"measurement": "Density (GATA3)/Density (α-Tubulin)", "setting": "GATA3 protein", "value": "0.01 ± 0.00004"}, {"measurement": "% KD GAPDH 10 nM", "setting": "human GAPDH mRNA", "value": "−17 ± 1", "unit": "%"}]}, {"substance": "30260-DC: GATA3 siNA duplex, site 1691: sense B GcAuGAcucAcuGGAGGAc TTB (SEQ 73), antisense GUCcuccAGuGAGucAuGcUU (SEQ 74) (sense GCAUGACUCACUGGAGGACTT; antisense GUCCUCCAGUGAGUCAUGCUU; chemistry not fully specified)", "values": [{"measurement": "% KD Mouse", "setting": "GATA3 mRNA [1]", "value": "47 ± 0", "unit": "%"}, {"measurement": "% KD Human", "setting": "GATA3 mRNA [2]; * Hs00231122_m1 Taqman Assay", "value": "60 ± 1* %"}, {"measurement": "% KD Human", "setting": "GATA3 mRNA [2]; ** Hs00922328_m1 Taqman Assay", "value": "69 ± 9** %"}, {"measurement": "IC50", "setting": "GATA3 mRNA [2]", "value": "0.254 ± 0.212", "unit": "nM"}, {"measurement": "% KD GATA3 mRNA at 10 nM", "setting": "GATA3 mRNA [2]", "value": "60 ± 1", "unit": "%"}, {"measurement": "% KD GATA3 10 nM", "setting": "GATA3 mRNA [2]", "value": "60 ± 1", "unit": "%"}, {"measurement": "Density (GATA3)/Density (α-Tubulin)", "setting": "GATA3 protein", "value": "0.025 ± 0.0007"}, {"measurement": "% KD GAPDH 10 nM", "setting": "human GAPDH mRNA", "value": "−38 ± 9", "unit": "%"}]}]}
